According to patent US20220389013A1, “PYRIDOPYRIMIDINONE COMPOUNDS AND APPLICATIONS THEREOF” (BeBetter Med Inc., priority 2020, published 2022):
Structures can show the parent of a compound that is named as a salt.

Columns and labels:
[1] = Caco-2 cell transmembrane transport experiment; settings: human; for efflux ratio at 90 min, 10 μM: Caco-2, pH 7.4; for Papp B→A at 90 min, 10 μM: basolateral to apical
From the text: (§2) In this experiment, a monolayer of Caco-2 cells was used to assess drug penetration. […] The apparent permeability coefficient from apical to basolateral (Papp A-B) and the basolateral to apical permeability coefficient (Papp B-A) of compounds represent the ability of the compound to be transported in both directions, respectively.
(§3) Apparent permeability coefficient (Papp)=(the volume of the receiver chamber/the filter surface area×culture time))×(the drug concentration of receiver chamber at the end of culture/(the drug concentration of donor chamber at the initial culture×dilution factor)
(§4) In this experiment, Millipore cell culture plates (PSHT 010 R5): membrane area=0.7 cm^2, recipient side volume=0.8 mL (A-to-B) or 0.4 mL (B-to-A), incubation time=90 minutes.

H23 (KRAS G12C) = test: Tumor cell proliferation inhibition assay (CellTiter-Glo), H23; format: cell-based, Human; settings: 10% fetal bovine serum
Procedure: The H358, H23 or MIA-Paca2 cells were digested, centrifuged and resuspended, and the cell density was measured with a Scepter automatic cell counter. Cells were diluted to a solution containing 44,000 cells per milliliter, then added to a 96-well culture plate at 90 μL per well. The 96-well plate was placed in a 5% CO2 incubator at 37° C., and after the cells were cultured for 24 hours, different concentrations of the compounds to be tested were added. Cells were incubated with compounds in the presence of 10% fetal bovine serum for 72 hours. The inhibition of cell growth was assessed by measuring ATP levels by using the CellTiter-Glo Luminescent Cell Viability Assay Kit (details in manufacturer's instructions). In brief, 30 μL of CellTiter-Glo reagent was added to each well and the plate was shaken for 10 minutes to induce cell lysis, then the fluorescent signal was detected and recorded with a Fluoroskan Ascent FL (Thermo). Maximum signal values were obtained from cells treated with DMSO for 72 hours. Minimum signal values were obtained with medium only (zero cell number). Inhibition rate %=(maximum signal value-compound signal value)/(maximum signal value-minimum signal value)×100%. Data were processed by using Graphpad prism5 software. IC50 values were calculated using a sigmoidal dose-response curve.

MIA-Paca2 (KRAS G12C) = test: Tumor cell proliferation inhibition assay (CellTiter-Glo), MIA-Paca2; format: cell-based, Human; settings: 10% fetal bovine serum
Procedure, shortened: (§1)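 Growth was read as ATP by CellTiter-Glo luminescence, with inhibition normalised to DMSO (max) and medium-only (min) wells. IC50 came from sigmoidal dose-response fits.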

[2] = Pharmacokinetic (PK) experiment in rats by gavage; format: in vivo; settings: rat, plasma, po, male SD rats, 20 mg/kg; for AUC(0-t): read-out: AUC0-24
H358 (KRAS G12C) = test: Tumor cell proliferation inhibition assay (CellTiter-Glo), H358; format: cell-based, Human; settings: 10% fetal bovine serum
Procedure, shortened: as §1

KRAS-G12C/SOS1 = biological target: T1, KRAS-G12C/SOS1 (Homo sapiens, UniProt P01116, G12C); test: HTRF KRAS-G12C/SOS1 binding assay; settings: 2 hours room temperature
T1 construct: purchased Cisbio #63ADK000CB16PEG
Procedure: 2) Diluted the compound to be tested with diluent into 10× stock solution, starting from a concentration of 10000 nM, diluting in 4-fold gradient and a total of 6 concentration gradients.
After incubated at room temperature for 15 minutes, added pre-mixed 5 uL of anti-Tag1-Tb^3+ and 5 uL of anti-Tag2-XL665. Sealed the plate and incubated at room temperature for 2 hours.
Data were processed by using Graphpad prism software.

H358 xenograft tumor = test: H358 human non-small cell lung cancer subcutaneous mouse xenograft model, anticancer activity; format: in vivo, BALB/c nude mice; settings: 100 mg/kg, po, qd, 26 days
Procedure: In this experiment, the anticancer activities of compounds 73-1 and 90-1 in the subcutaneous tumor model of H358 human non-small cell lung cancer xenograft mice, and the dose-response relationship of compound 73-1 in inhibiting the growth of H358 xenograft tumors were investigated. […] When H358 cells were cultured to a sufficient number, cells were collected. […] Vernier calipers were used to measure the size of the tumor. The formula for calculating the tumor volume is: tumor volume=(length×width^2)/2, and the formula for calculating the relative tumor proliferation rate T/C value is: T/C (%)=100×ΔT/ΔC (ΔT>0) or T/T (%)=100×ΔT/T0 (ΔT<0). ΔT is the difference of tumor volume in the treatment group, ΔC is the difference of tumor volume in the vehicle control group, and T0 is the tumor volume in the treatment group before administration.
The dosage of the all groups, except the vehicle control group, was 100 mg/kg, 10 mL/kg orally administered by gavage, once a day. […] All the groups were administered continuously for 26 days.

in vitro = settings: human; for efflux ratio at 90 min, 10 μM: Caco-2, pH 7.4
From the text: as §2, §3, §4

[3] = Caco-2, pH 7.4, Papp A-B Sample_01, 10 μM, pH 7.4, 37° C., 90 min, apical to basolateral
[4] = Caco-2, pH 7.4, Papp A-B Sample_02, 10 μM, pH 7.4, 37° C., 90 min, apical to basolateral
[5] = Caco-2, pH 7.4, Papp A-B mean value, 10 μM, pH 7.4, 37° C., 90 min, apical to basolateral
[6] = Caco-2, pH 7.4, Papp B-A Sample_01, 10 μM, pH 7.4, 37° C., 90 min
[7] = Caco-2, pH 7.4, Papp B-A Sample_02, 10 μM, pH 7.4, 37° C., 90 min
[8] = Caco-2, pH 7.4, Papp B-A mean value, 10 μM, pH 7.4, 37° C., 90 min
[9] = Caco-2, pH 7.4, apparent permeability coefficient Papp A-B, Caco-2
[10] = Caco-2, pH 7.4, Papp A-B Sample_01
[11] = Caco-2, pH 7.4, Papp A-B Sample_02
[12] = Caco-2, pH 7.4, Papp A-B mean value
[13] = Caco-2, pH 7.4, Papp B-A Sample_01
[14] = Caco-2, pH 7.4, Papp B-A Sample_02
[15] = Caco-2, pH 7.4, Papp B-A mean value

T1 sequence (P01116 1-188 isoform P01116-2 G12C): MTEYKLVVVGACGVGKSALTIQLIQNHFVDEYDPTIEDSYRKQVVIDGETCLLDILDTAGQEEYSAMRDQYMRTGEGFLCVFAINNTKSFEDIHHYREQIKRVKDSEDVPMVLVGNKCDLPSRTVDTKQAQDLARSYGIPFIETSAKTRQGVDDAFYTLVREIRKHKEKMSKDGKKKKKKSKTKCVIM

| SMILES | efflux ratio at 90 min, 10 μM [1] | Papp A→B at 90 min, 10 μM [1, 3] [nm/s] | Papp A→B at 90 min, 10 μM [1, 4] [nm/s] | Papp A→B at 90 min, 10 μM [1, 5] [nm/s] | Papp B→A at 90 min, 10 μM [1, 6] [nm/s] | Papp B→A at 90 min, 10 μM [1, 7] [nm/s] | Papp B→A at 90 min, 10 μM [1, 8] [nm/s] | Papp A→B at 90 min, 10 μM [1, 9] [nm/s] | AUC(0-inf) [2] [µg·h/mL] | Cmax [2] [µg/mL] | Tmax [2] [h] | half-life [2] [h] | AUC(0-t) [2] [µg·h/mL] | IC50 (KRAS-G12C/SOS1) [nM] | IC50 (H23 (KRAS G12C); Homo sapiens, 72 h) [µM] | IC50 (MIA-Paca2 (KRAS G12C); Homo sapiens, MIA PaCa-2, 72 h) [µM] | IC50 (H358 (KRAS G12C); Homo sapiens, NCI-H358, 72 h) [µM] | melting point [°C] | also measured |
| --- | --- | --- | --- | --- | --- | --- | --- | --- | --- | --- | --- | --- | --- | --- | --- | --- | --- | --- | --- |
| C=CC(=O)N1CCN(c2nc(=O)n(-c3c(C)ccnc3C(C)C)c3nc(-c4c(F)ccc5ccoc45)c(F)cc23)[C@@H](C)C1 (single isomer, unassigned) [Compound 70-1] | 1.19 | 190 | 188 | 189 | 211 | 237 | 224 | > 100 | 7.91 | 3.53 | 1 | 2.77 | 7.89 | 50 to 100 | – | – | – | – | IC50 (H23 (KRAS G12C); 72 hours): < 0.01 µM; IC50 (MIA-Paca2 (KRAS G12C); 72 hours): 0.01 to 0.05 µM; IC50 (H358 (KRAS G12C); 72 hours): 0.01 to 0.05 µM |
| C=CC(=O)N1C[C@H](C)N(c2nc(=O)n(-c3c(C)ccnc3C(C)C)c3nc(-c4c(F)ccc5ccoc45)c(Cl)cc23)C[C@H]1C (single isomer, unassigned) [Compound 90-1] | 1.08 | 201 | 204 | 202 | 186 | 252 | 220 | > 100 | 13.8 | 3.72 | 1.33 | 3.26 | 13.8 | < 50 | < 0.01 | < 0.01 | < 0.01 | 175 to 177 | Changes of body weight (%) (H358 xenograft tumor): 23.3%; tumor suppressor T/C value (%) (H358 xenograft tumor): −99.5% |
| C=CC(=O)N1C[C@H](C)N(c2nc(=O)n(-c3c(C)ccnc3C(C)C)c3nc(-c4c(F)c(F)cc5ccoc45)c(F)cc23)C[C@H]1C (single isomer, unassigned) [Compound 91-1] | – | – | – | – | – | – | – | – | 9.71 | 2.97 | 1.17 | 2.72 | 9.68 | 100 to 500 | < 0.01 | 0.01 to 0.05 | 0.01 to 0.05 | 156 to 158 | – |
| C=CC(=O)N1CCN(c2nc(=O)n(-c3c(C)ccnc3C(C)C)c3nc(-c4c(F)c(F)cc5ccoc45)c(Cl)cc23)[C@@H](C)C1 (single isomer, unassigned) [Compound 103-1] | 2.08 | 121 | 107 | 114 | 197 | 278 | 237 | > 100 | 6.24 | 2.7 | 1 | 6.03 | 6.19 | < 50 | < 0.01 | < 0.01 | < 0.01 | – | – |
| C=CC(=O)N1C[C@H](C)N(c2nc(=O)n(-c3c(C)ccnc3C(C)C)c3nc(-c4c(F)c(F)cc5ccoc45)c(Cl)cc23)C[C@H]1C (single isomer, unassigned) [Compound 104-1] | 1.92 | 112 | 104 | 108 | 220 | 195 | 208 | > 100 | 10.5 | 2.59 | 1 | 4.35 | 10.3 | < 50 | < 0.01 | 0.01 to 0.05 | < 0.01 | – | – |
| C=CC(=O)N1C[C@H](C)N(c2nc(=O)n(-c3c(C)ccnc3C(C)C)c3nc(-c4c(F)ccc5ccoc45)c(Cl)cc23)C[C@H]1C [Compound 90, 4-((2S,5R)-4-acryloyl-2,5-dimethylpiperazin-1-yl)-6-chloro-7-(6-fluorobenzofuran-7-yl)-1-(2-isopropyl-4-methylpyridin-3-yl)pyrido[2,3-d]pyrimidin-2(1H)-one] | – | – | – | – | – | – | – | – | 20.4 | 5.61 | 1 | 5.54 | 20.1 | 50 to 100 | < 0.01 | – | – | 167 to 169 | IC50 (MIA-Paca2 (KRAS G12C); 72 hours): 0.01 to 0.05 µM; IC50 (H358 (KRAS G12C); 72 hours): < 0.01 µM |
| CC[C@H]1OC(=O)[C@H](C)[C@@H](O[C@H]2C[C@@](C)(OC)[C@@H](O)[C@H](C)O2)[C@H](C)[C@@H](O[C@@H]2O[C@H](C)C[C@H](N(C)C)[C@H]2O)[C@](C)(O)C[C@@H](C)C(=O)[C@H](C)[C@@H](O)[C@]1(C)O [Erythromycin] | – | – | – | – | – | – | – | – | – | – | – | – | – | – | – | – | – | – | efflux ratio at 90 min, 10 μM (in vitro): 30.6; Papp A→B at 90 min, 10 μM (in vitro; [10]): 4.6 nm/s; Papp A→B at 90 min, 10 μM (in vitro; [11]): 5 nm/s; Papp A→B at 90 min, 10 μM (in vitro; [12]): 4.8 nm/s; Papp B→A at 90 min, 10 μM (in vitro; [13]): 138 nm/s; Papp B→A at 90 min, 10 μM (in vitro; [14]): 155 nm/s; Papp B→A at 90 min, 10 μM (in vitro; [15]): 147 nm/s |
| COCCc1ccc(OCC(O)CNC(C)C)cc1 (stereo not drawn) [Metoprolol Tartrate] | – | – | – | – | – | – | – | – | – | – | – | – | – | – | – | – | – | – | efflux ratio at 90 min, 10 μM (in vitro): 0.93; Papp A→B at 90 min, 10 μM (in vitro; [10]): 333 nm/s; Papp A→B at 90 min, 10 μM (in vitro; [11]): 364 nm/s; Papp A→B at 90 min, 10 μM (in vitro; [12]): 348 nm/s; Papp B→A at 90 min, 10 μM (in vitro; [13]): 294 nm/s; Papp B→A at 90 min, 10 μM (in vitro; [14]): 354 nm/s; Papp B→A at 90 min, 10 μM (in vitro; [15]): 324 nm/s |
